Where a SMILES comes first, the peptide text is derived from it. Bridges are numbered along the chain shown (N, C = ends). Roman numbers before positions name the chains, in order. [ ]: non-standard residue; d: D form. The star is where a group is joined. Arachidoyl = CCCCCCCCCCCCCCCCCCCC(=O)*; Stearoyl = CCCCCCCCCCCCCCCCCC(=O)*; Orn = NCCC[C@H](N)C(=O)O
Tests used:
[1] = test system: CHO stably expressing green fluorescent protein (GFP); experiment: GFP gene downregulation by CPP/siGFP complexes (lysate fluorescence, FACS, confocal); assay type: cell-based; conditions: for cells with downregulated reporter gene (GFP signal below threshold), FACS: CHO-GFP, CPP/siGFP complexes; for downregulation of GFP (average, cell lysate fluorescence): siGFP 100 nM
Procedure: (§1) For assessing the siRNA mediated RNAi, CHO-GFP or U87-luc2 cells (5×10^5 cells per well) were seeded on a 24-well plate a day prior to the experiment and grown in serum containing media. On experiment day, prior to adding pre-formed complexes ( 1/10th of the final volume per well), media was replaced with fresh serum containing medium.
(§2) For complex formation, peptide was mixed with luc2 siRNA (sense 5′-[…]-3′ (SEQ ID NO:7), antisense 5′-[…] 3′ (SEQ ID NO:8), Metabion, Germany) or with siRNA against GFP (5′-[…] (SEQ ID NO:9), 3′-[…] (SEQ ID NO:10)) in mQ water (pH 5.3-6.3) using peptide to siRNA molar ratios (MR is the ratio of peptide to siRNA) […] and incubated at RT for 1 h. For siLuc2, the final concentration in media was 25 nM and for siGFP 100 nM. Cells were co-incubated with complexes for 4 h (37° C., 5% CO2), thereafter fresh serum containing media was added and followed by further incubation (20 h for siLuc2 or 44 h for siGFP complexes). Luciferase gene downregulation was measured from cell lysates with Promega luciferase assay system (Promega, Sweden) in combination with GLOMAX 96 microplate luminometer equipped with GLOMAX 1.9.2 software (Promega). GFP was measured after treatment from cell lysates on black 96-well plates by measuring total fluorescence (Symergy MX, BioTek Instruments, USA equipped with Gen5 1.10 software). The results were normalized to the protein content of each sample (DC Protein Assay, BioRad, USA).
For flow cytometry analysis (FACS) analysis CHO-GFP cells were seeded and treated as described previously. After incubation, cells were washed with 1× PBS and detached from plates with trypsin-EDTA (0.25%), and re-suspended in PBS supplemented with FBS (5%) and transferred to transparent U-bottom 96-well plates. FACS was carried out with BD LSR II flow cytometer (BD Biosciences, San Jose, CA, USA) equipped with a 488 nm argon laser. Population of viable cells was determined from scatter plot: forward scattered plot (FSC) vs. side scattered light (SSC) plot. A minimum of 10,000 events from the viable cell population per sample were analyzed using BD FACS Diva software. Results are shown as the population with GFP signal lower than that of 0.1% of untreated cells.
For confocal microscopy 2×10^5 cells per chamber were seeded on NUNC 8-chamber plates. After treatment with complexes (25 ul of pre-formed CPP/siRNA complexes added to cells in 225 ul serum containing media), incubated (48 h) and GFP florescence images of cells were captured using confocal microscope Zeiss LSM 710 and excitation at 488 nm (493-616 filter).

[2] = test system: U87 MG-luc2 human glioma cells, stably expressing luc2; experiment: Luciferase gene downregulation by CPP/siRNA (siLuc2) complexes; assay type: cell-based; conditions: for Red (%) (reduction, based on remaining luminescence on U87 cells post-treatment): siRNA against luciferase
Procedure: as §1, §2
Luciferase activity was determined as described in previous paragraph.
For determination of pH dependency on the transfection efficiency, complexes were formed at MR30, incubated and diluted before addition to cells to obtain siRNA final concentration 10 nM in transfection media. HEPES buffer supplemented with 10% FBS was used as transfection media. Complexes were co-incubated with cells for 4 h and then media was replaced with cell growth media. After further 20 h incubation cells were lysed and analyzed as described previously.
The experiment was carried out in serum containing media (10% FBS). CPP/siRNA complexes were formed at different molar ratios with siRNA concentration kept constant (50 nM in transfection media). Luminescence from luciferin-luciferase reaction was measured at 24 hours post-treatment from cell lysate. Results were normalized to protein content and luminescence values from untreated cells (100%).

U87 cells = experiment: MTS toxicity assay; assay type: cell-based, human
Procedure: Cell proliferation was determined with the CellTiter 96® Aqueous Non-Radioactive Cell Proliferation Assay (MTS) (Promega Biotech AB, Sweden) according to the manufacturer's instructions. For this 1×10^5 U87 cells were seeded 1 day prior to experiment on transparent 96-well plates. On experiment day, media was replaced with 90 ul of fresh media and to the cells complexes formed at MR30 (both with 25 nM and 100 nM final siRNA concentrations) or free peptide at the range of 0.5-4 uM final concentrations were added. Cells were treated with complexes for 20 h. MTS was added according to the manufacturer's protocol. The absorbance of formazan product was measured at 490 nm with Tecan Sunrise microplate absorbance reader (Tecan Group Ltd, Switzerland) and percentage of viable cells was calculated using GraphPad Prism software 5.0 (Graphpad Software, CA, USA).

[3] = Fluorescent dye (PicoGreen) intercalation and heparin displacement assay of CPP/siRNA complexes; assay type: physicochemical; conditions: for accessibility of siRNA in complexes (dye intercalation): MR30, no heparin; for stability of complexes to heparin displacement (in words): complexes pre-formed at MR30
Procedure: Complexation of siRNA and CPPs was assessed by Quant-iT™ PicoGreen® (PG) (Thermo Fisher Scientific, USA) assay in mQ water. Complexes were prepared as described previously, following addition of diluted PG. For detection, complexes (⅕ of volume), water (3/5) and PG (1/5) working dilution was incubated for 5 minutes and fluorescence was measured by fluorimeter (λex=492 nm, λem=535 nm) (SynergyMx, BioTek). For heparin displacement, instead of water, heparin salt solution at different concentrations were used and complexes incubated at 37° C. for 30 min before addition of PG dilution. Complex formation was also confirmed by gel electrophoresis (details in section 2.11).

Proteinase K = target: T1, Proteinase K (Parengyodontium album, UniProt P06873); experiment: Stability of CPP/siRNA complexes to degradation by Proteinase K; assay type: physicochemical; conditions: Proteinase K >14.4 U per well
T1 construct: purchased Thermo Scientific, USA
T1 sequence (P06873 106-384): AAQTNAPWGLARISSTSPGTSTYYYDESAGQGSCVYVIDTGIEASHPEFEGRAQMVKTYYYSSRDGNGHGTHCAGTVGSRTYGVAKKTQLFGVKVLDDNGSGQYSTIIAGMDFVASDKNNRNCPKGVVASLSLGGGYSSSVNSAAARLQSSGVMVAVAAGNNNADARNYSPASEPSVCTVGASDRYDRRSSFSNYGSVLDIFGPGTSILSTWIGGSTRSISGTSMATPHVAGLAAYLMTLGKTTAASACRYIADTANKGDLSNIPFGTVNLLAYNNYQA
Procedure: To assess protection of siRNA from enzymatic degradation, after addition of PG dilution and initial measurement to set a starting point, Proteinase K (Thermo Scientific, USA) was added (>14 U/ml, 20 ul of mixture per well containing dilution of 120 ul of enzyme in 1 ml), co-incubated with complexes and fluorescence was measured over a 10 h period.

murine red blood cells = experiment: Membrane activity assay on murine red blood cells: hemolysis; assay type: cell-based, mouse; conditions: for hemolytic activity of free peptide (in words): up to 10 uM
Procedure: For evaluation of membrane activity of peptides, hemolysis assay was used. For this whole blood was collected from mouse (adult, BALB/c) saphenous vein into a heparinized collection tube. Blood was centrifuged (2300× g, 15 min) to separate cells (red blood cells-RBC) from the plasma. RBCs were washed according to following procedures.
RBCs were washed with 10 ml 0.9% NaCl saline and centrifuged (600× g, 15 min). Supernatant was discarded after each centrifugation. This was repeated at least 3 times. RBCs were re-suspended in 5 ml saline and distributed equally to tubes and centrifuged (600× g, 15 min). The cells were washed and re-suspended in 2× PBS with the required pH (pH 5.5-7.5). The hemoglobin content in stocks was measured after lysis of cells with equal volume of 0.1% Triton X100 supplemented with 5% glucose. The cell suspension was diluted accordingly for each pH value to obtain similar concentration range of hemoglobin in stocks. To each 100 ul of peptide solution 100 ul of 10% glucose was added, mixed, and equal volume (200 ul) of RBC in 2× PBS were added and gently mixed. Peptide solution with RBCs was incubated at 37° C. for 1 h with gentle mixing (max 300 rpm) after which samples were centrifuged to pellet intact cells from the solution. Hemoglobin from lysed cells was determined from each sample from the supernatant on transparent 96-well plates by measuring the absorbance at 540 nm.
Controls were incubated in similar manner as samples. As a non-hemolysis control mQ supplemented with glucose (0%) was used and for hemolytic control 0.1% TritonX-100 with glucose (100%) was used (cells are suspended in 2× PBS before addition). Final percent was calculated as follows: […]
For hemolytic concentration determination 2× PBS at pH 7.5 was used for incubation and 1× PBS at pH 7.5 was used for washing. Everything else is as described in previous paragraph.

| Structure (SMILES) | cells with downregulated reporter gene (GFP signal below threshold), FACS [1] | downregulation of GFP (average, cell lysate fluorescence) [1] | Red (%) (reduction, based on remaining luminescence on U87 cells post-treatment) ([2]; CPP/siRNA complexes) | remaining reporter activity ([2]; molar ratio 30 (MR30, peptide to siRNA), untreated cells 100%) [%] | concentration at which free peptide is toxic to cells (MTS) (U87 cells) [µM] | accessibility of siRNA in complexes (dye intercalation) [3] | stability of complexes to heparin displacement (in words) [3] | stability of complexes to proteinase K (in words) (Proteinase K) | hemolytic activity of free peptide (in words) (murine red blood cells) | pH dependent hemolytic activity (in words) (murine red blood cells; peptide 0.75 uM, buffer pH 5.5-7.5) | GFP signal in confocal images ([1]; live cells treated with CPP/siGFP complexes) | luciferase downregulation efficiency (in words) ([2]; CPP/siRNA complexes, comparison between CPPs) | downregulation of reporter gene on cells in buffer, pH dependence ([2]; HEPES buffer pH 6.0 vs 7.4, siRNA 10 nM) | IC50 ([2]; complexes formed at MR30, average, read-out: IC50 (siRNA concentration), luciferase downregulation) [nM] |
| --- | --- | --- | --- | --- | --- | --- | --- | --- | --- | --- | --- | --- | --- | --- |
| CCCCCCCCCCCCCCCCCC(=O)N[C@@H](Cc1c[nH]cn1)C(=O)N[C@@H](Cc1c[nH]cn1)C(=O)N[C@@H](Cc1c[nH]cn1)C(=O)N[C@@H](Cc1c[nH]cn1)C(=O)N[C@@H](Cc1c[nH]cn1)C(=O)N[C@@H](Cc1c[nH]cn1)C(=O)NCC(=O)NCCC[C@H](N)C(=O)N[C@H](C(=O)N[C@@H](CC(C)C)C(=O)N[C@@H](CC(C)C)C(=O)N[C@@H](CCCCN)C(=O)N[C@@H](C)C(=O)N[C@@H](CC(C)C)C(=O)N[C@@H](CCCCN)C(=O)N[C@@H](C)C(=O)N[C@@H](CC(C)C)C(=O)N[C@@H](C)C(=O)N[C@@H](CCCCN)C(=O)N[C@@H](C)C(=O)N[C@H](C(=O)N[C@@H](CC(C)C)C(N)=O)[C@@H](C)CC)[C@@H](C)CC [NF704] (I: H-[Orn]ILLKALKALAKAIL-NH2 / II: Stearoyl-HHHHHHG; amide I:1-II:C) | 40% | lower efficiency than H6-C20 | 82 | 19 | 10 | low accessibility of siRNA | not as resistant to heparin displacement as H6^1-C20 | – | – | – | – | – | – | – |
| CCCCCCCCCCCCCCCCCCCC(=O)N[C@@H](Cc1c[nH]cn1)C(=O)N[C@@H](Cc1c[nH]cn1)C(=O)N[C@@H](Cc1c[nH]cn1)C(=O)N[C@@H](Cc1c[nH]cn1)C(=O)N[C@@H](Cc1c[nH]cn1)C(=O)N[C@@H](Cc1c[nH]cn1)C(=O)NCC(=O)NCCC[C@H](N)C(=O)N[C@H](C(=O)N[C@@H](CC(C)C)C(=O)N[C@@H](CC(C)C)C(=O)N[C@@H](CCCCN)C(=O)N[C@@H](C)C(=O)N[C@@H](CC(C)C)C(=O)N[C@@H](CCCCN)C(=O)N[C@@H](C)C(=O)N[C@@H](CC(C)C)C(=O)N[C@@H](C)C(=O)N[C@@H](CCCCN)C(=O)N[C@@H](C)C(=O)N[C@H](C(=O)N[C@@H](CC(C)C)C(N)=O)[C@@H](C)CC)[C@@H](C)CC [NF705] (I: H-[Orn]ILLKALKALAKAIL-NH2 / II: Arachidoyl-HHHHHHG; amide I:1-II:C) | – | lower efficiency than H6-C20 | 52 | – | – | low accessibility of siRNA | significantly higher stability to heparin displacement than NF70 peptide and even NF72 peptide | formed the most stable complexes with siRNA resistant to proteinase K | significantly higher | markedly hemolytic already at pH 7.5 | – | – | – | – |
| CCCCCCCCCCCCCCCCCC(=O)N[C@@H](C)C(=O)NCC(=O)N[C@@H](Cc1ccc(O)cc1)C(=O)N[C@@H](CC(C)C)C(=O)N[C@@H](CC(C)C)C(=O)NCC(=O)N[C@@H](CCCCNC(=O)[C@H](CCCCNC(=O)[C@H](CCCCNC(=O)CCC(=O)NCCN(C)CCNc1ccnc2cc(C(F)(F)F)ccc12)NC(=O)CCC(=O)NCCN(C)CCNc1ccnc2cc(C(F)(F)F)ccc12)NC(=O)[C@H](CCCCNC(=O)CCC(=O)NCCN(C)CCNc1ccnc2cc(C(F)(F)F)ccc12)NC(=O)CCC(=O)NCCN(C)CCNc1ccnc2cc(C(F)(F)F)ccc12)C(=O)N[C@H](C(=O)N[C@@H](CC(N)=O)C(=O)N[C@@H](CC(C)C)C(=O)N[C@@H](CCCCN)C(=O)N[C@@H](C)C(=O)N[C@@H](CC(C)C)C(=O)N[C@@H](C)C(=O)N[C@@H](C)C(=O)N[C@@H](CC(C)C)C(=O)N[C@@H](C)C(=O)N[C@@H](CCCCN)C(=O)N[C@@H](CCCCN)C(=O)N[C@H](C(=O)N[C@@H](CC(C)C)C(N)=O)[C@@H](C)CC)[C@@H](C)CC [PF6, reference compound] | approximately 70% | highest | 84 | – | – | – | only about a half of that in NF55/siRNA complexes | significantly lower stability to longer exposure to enzyme | most hemolytic | – | detected GFP signal was the lowest | most efficient peptides even at low MRs | pH-dependent | 10.4 |

From patent US12385042B2, “Cell-penetrating peptides” (VECTIOPEP OÜ, priority 2019, dated 2025)
